From paper PMC3265371 (Nature Communications, 2011)
Read-outs that look alike come from different tables or passages of the source.

Legend:
[1] = biological target: T1, CNGA1-ΔCLZ (homomeric channel) (Bos taurus, UniProt Q00194, DEL609-693); test: inside-out patch clamp, block of cGMP-activated current; type: cell-based
T1 sequence (Q00194 1-608): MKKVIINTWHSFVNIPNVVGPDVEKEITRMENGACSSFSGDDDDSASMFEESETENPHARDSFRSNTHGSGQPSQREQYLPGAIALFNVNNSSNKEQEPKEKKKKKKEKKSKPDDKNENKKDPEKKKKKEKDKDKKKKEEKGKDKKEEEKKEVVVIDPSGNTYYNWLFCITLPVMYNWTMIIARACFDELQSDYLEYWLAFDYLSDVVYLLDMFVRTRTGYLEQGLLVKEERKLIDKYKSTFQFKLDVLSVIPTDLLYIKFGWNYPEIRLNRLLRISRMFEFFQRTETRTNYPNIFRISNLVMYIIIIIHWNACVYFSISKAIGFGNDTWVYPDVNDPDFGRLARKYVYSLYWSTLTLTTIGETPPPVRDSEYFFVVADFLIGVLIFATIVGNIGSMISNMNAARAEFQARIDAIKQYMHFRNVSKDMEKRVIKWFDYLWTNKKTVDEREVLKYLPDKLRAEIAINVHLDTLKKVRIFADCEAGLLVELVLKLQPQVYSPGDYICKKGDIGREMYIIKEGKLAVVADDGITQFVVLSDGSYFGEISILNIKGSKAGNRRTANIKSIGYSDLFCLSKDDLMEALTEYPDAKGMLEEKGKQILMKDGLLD

[2] = biological target: CNGA1+CNGB1 (heteromeric rod CNG channel) (Bos taurus, UniProt Q00194+Q28181); test: as above; type: cell-based
Sequence of CNGA1+CNGB1 (heteromeric rod CNG channel) (Q28181 whole entry, one chain of several): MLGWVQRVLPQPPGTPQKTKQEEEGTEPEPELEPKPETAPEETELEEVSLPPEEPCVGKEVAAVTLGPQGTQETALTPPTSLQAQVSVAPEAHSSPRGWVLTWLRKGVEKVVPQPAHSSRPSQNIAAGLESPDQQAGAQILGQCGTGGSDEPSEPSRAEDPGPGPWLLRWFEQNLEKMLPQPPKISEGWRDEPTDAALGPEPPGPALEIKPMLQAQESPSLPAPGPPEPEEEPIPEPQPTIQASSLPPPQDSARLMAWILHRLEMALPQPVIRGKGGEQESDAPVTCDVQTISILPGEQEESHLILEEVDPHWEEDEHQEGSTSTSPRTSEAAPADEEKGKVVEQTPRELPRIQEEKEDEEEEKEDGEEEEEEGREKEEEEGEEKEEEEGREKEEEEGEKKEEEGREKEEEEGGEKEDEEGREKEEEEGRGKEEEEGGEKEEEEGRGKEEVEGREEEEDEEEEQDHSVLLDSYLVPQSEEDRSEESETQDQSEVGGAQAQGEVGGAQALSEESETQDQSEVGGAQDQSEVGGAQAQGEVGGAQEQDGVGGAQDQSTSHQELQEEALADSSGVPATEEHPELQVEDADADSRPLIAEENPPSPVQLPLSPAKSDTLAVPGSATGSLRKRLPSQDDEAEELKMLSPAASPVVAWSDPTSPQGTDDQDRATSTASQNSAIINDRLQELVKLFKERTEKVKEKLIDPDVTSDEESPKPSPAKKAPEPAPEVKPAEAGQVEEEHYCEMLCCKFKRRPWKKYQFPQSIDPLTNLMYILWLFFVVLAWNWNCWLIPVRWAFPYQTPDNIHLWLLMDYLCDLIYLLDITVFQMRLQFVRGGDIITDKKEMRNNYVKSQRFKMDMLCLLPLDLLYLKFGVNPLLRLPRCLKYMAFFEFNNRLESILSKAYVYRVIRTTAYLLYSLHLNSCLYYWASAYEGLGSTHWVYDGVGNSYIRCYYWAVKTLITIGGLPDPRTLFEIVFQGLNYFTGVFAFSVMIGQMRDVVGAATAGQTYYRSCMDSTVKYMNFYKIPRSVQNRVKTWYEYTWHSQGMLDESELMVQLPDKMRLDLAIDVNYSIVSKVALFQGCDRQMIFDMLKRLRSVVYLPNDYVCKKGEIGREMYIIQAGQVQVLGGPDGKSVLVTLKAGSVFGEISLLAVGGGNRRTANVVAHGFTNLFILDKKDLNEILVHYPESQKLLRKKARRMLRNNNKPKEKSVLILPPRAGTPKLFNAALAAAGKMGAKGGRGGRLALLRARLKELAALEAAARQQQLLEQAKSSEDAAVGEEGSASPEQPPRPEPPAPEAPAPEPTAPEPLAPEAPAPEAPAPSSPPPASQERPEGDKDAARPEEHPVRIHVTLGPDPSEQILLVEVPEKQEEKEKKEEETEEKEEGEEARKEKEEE

[3] = biological target: CNGA1+CNGB1-ΔN (Bos taurus, UniProt Q00194+Q28181, DEL2-765); test: as above; type: cell-based
Sequence of CNGA1+CNGB1-ΔN (Q28181 766-1394, stated change not applied, one chain of several): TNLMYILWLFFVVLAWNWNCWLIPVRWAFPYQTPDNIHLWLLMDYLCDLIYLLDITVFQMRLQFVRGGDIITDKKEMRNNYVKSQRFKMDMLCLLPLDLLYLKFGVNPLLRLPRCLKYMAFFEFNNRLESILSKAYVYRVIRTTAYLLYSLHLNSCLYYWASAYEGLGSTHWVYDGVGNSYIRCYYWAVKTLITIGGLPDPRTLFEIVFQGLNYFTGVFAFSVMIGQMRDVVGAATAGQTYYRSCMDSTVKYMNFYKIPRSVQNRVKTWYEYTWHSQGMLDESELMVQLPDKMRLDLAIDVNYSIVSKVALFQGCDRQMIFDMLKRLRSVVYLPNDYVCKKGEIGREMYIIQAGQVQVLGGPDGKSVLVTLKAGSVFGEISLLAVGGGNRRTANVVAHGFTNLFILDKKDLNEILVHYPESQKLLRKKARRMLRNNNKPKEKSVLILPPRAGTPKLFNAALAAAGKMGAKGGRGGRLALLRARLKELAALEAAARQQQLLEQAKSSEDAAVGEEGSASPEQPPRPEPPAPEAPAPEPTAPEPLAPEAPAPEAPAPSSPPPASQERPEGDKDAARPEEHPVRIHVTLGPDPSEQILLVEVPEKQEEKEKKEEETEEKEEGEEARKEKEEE

[4] = biological target: T2, CNGA1 (homomeric channel) (Bos taurus, UniProt Q00194); test: as above; type: cell-based
T2 sequence (Q00194 1-690): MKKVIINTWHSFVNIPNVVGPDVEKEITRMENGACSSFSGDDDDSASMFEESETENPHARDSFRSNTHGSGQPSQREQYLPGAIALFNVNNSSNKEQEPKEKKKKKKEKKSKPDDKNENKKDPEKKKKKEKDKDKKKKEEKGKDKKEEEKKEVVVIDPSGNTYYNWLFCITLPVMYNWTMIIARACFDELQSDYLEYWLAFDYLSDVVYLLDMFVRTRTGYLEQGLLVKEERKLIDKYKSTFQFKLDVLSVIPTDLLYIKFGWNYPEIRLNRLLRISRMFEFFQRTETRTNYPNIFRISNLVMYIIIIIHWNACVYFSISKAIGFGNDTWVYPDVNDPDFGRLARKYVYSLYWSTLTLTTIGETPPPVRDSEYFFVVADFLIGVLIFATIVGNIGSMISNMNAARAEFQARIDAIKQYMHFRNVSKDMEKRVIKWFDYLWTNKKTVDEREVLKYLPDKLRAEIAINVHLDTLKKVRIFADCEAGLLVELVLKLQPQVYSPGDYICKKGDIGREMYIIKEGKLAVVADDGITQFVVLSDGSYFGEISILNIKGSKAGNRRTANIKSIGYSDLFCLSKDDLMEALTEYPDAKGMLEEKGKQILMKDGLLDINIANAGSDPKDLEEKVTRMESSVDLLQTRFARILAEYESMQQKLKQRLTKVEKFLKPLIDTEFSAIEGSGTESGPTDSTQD

[5] = biological target: T2, CNGA1 (homomeric channel); test: inside-out patch clamp, activated current; type: biochemical; details: 2.5 mM cGMP, ±60 mV, pH 7.2; activation, saturating
[6] = biological target: the molecule itself; test: SEC-MALS
[7] = biological target: the molecule itself

## COc1ccc([C@H]2Sc3ccccc3N(CCN(C)C)C(=O)[C@H]2OC(C)=O)cc1 [L-cis-diltiazem]
[1]
  IC50: 164 ± 8.2 µM
[2]
  IC50: 2.45 ± 0.28 µM
[3]
  IC50: 1.4 ± 0.21 µM
[4]
  IC50: 174 ± 7.2 µM

## Nc1nc2c(ncn2[C@@H]2O[C@@H]3COP(=O)(O)O[C@H]3[C@H]2O)c(=O)[nH]1 [cGMP]
[5]
  inside-out patch clamp, activated current: Homomeric channels of CNGA1 subunits are efficiently activated by saturating cGMP

B1: CNGA1#621–690 (domain or fragment, bovine, UniProt Q00194 621-690, looked up)
chain: LEEKVTRMESSVDLLQTRFARILAEYESMQQKLKQRLTKVEKFLKPLIDTEFSAIEGSGTESGPTDSTQD
[6]
  stoichiometry N: 3

## LEEKVTRMESSVDLLQTRFARILAEYESMQQKLKQRLTKVEKFLKPL (domain or fragment, bovine, UniProt Q00194 621-667, looked up) [CNGA1#621–667]
[7]
  stoichiometry N: 3

## LEEKVEQLGSSLDTLQTRFARLLAEYNATQMKMKQRLSQLESQVKGG (domain or fragment, human, UniProt Q16281 626-672, looked up) [CNGA3#626–672]
[7]
  stoichiometry N: 3

B2: CNGA3#626–694 (domain or fragment, human, UniProt Q16281 626-694, looked up)
chain: LEEKVEQLGSSLDTLQTRFARLLAEYNATQMKMKQRLSQLESQVKGGGDKPLADGEVPGDATKTEDKQQ
[6]
  stoichiometry N: 3
